Measured values as given in patent publication US20240327415A1, “Multicomponent Complexes, Including Salts, Crystalline Forms, and Hydrates and Solvates of ENT1 Inhibitors” (iTeos Belgium SA, priority 2023, published 2024).

Legend:
Type in all cases: physicochemical
[1] = salt screen, XRPD of damp, dried and 40° C./75% RH stored samples (Salt Preparation Methods 1 and 2); parameters: key: A = amorphous; Evap. = isolated via evaporation
Protocol: (§1) Salt Preparation Method 1: Approximately 25 mg of Compound 1 (free base) was weighed out into 1.5 mL screw-cap vials and a stirrer bar was added. For solid counterions, the appropriate amount of acid (1.0 or 2.0 equiv.) was weighed into separate 1.5 mL screw-cap vials. 100 μL of the appropriate solvent system was added to both the Compound 1 and the solid counterions. Stock solutions of liquid counterions were prepared, such that 100 μL contained 1.0 or 2.0 equiv. of acid. See counterion and solvent lists in Table 60 and Table 61 respectively.
(§2) The samples were stirred at 40° C. for 5-10 min and then the acid solutions were added to Compound 1, rinsing out the transfer vial with a further 50 μL of solvent. […] Experiments were temperature cycled between 40° C. and 5° C. (1 h hold; 0.1° C./min ramp/cool) for ca. 24-68 h. Anti-solvent addition (ASA) was carried out to slurries at 5° C. then experiments were heated to 30° C. over 1 h. ASA was carried out at 30° C. or 40° C. where clear solutions or gums were observed.
(§3) Temperature cycling was then continued for ca. 16-69 h, followed by further ASA and temperature cycling if required. Material was isolated at 5° C. and analyzed damp by XRPD. All isolated material was dried under vacuum at ca. 40° C. for ca. 17-91 h then re-analyzed by XRPD. The XRPD plate was stored at 40° C./75% RH for 24-48 h and then samples re-analyzed. Solutions were stored uncapped at ambient temperature to evaporate. Any residual solids were analyzed by XRPD.
(§4) Salt Preparation Method 2: The general procedure adopted in preparing the potential salts is outlined below. A known mass of Compound 1 (free base) and a known volume of the appropriate solvent system were added to 20 mL scintillation vials. The required mol. equiv. of the appropriate counterions were added to the vials as solutions or slurries in the corresponding solvent system.
(§5) The experiments were stirred at 40° C. for ca. 1 h, and then temperature cycled between 40° C. and 5° C. with 0.1° C./min ramp and 1 h hold between each step. Anti-solvent additions and subsequent slurrying at 5° C. were employed in order to facilitate crystallization. […] The damp and dried solids were subsampled and analyzed by XRPD. Where applicable, the dried solids were stored at 40° C./75% RH for 24-48 h in order to improve the crystallinity and/or facilitate solid form conversion to the desired form.

[2] = as above; parameters: key to XRPD Analysis Damp/Dry: A = amorphous; Evap. = isolated via evaporation; details: Benzenesulfonic acid, 1 equiv.; IPA:H2O (75:25% v/v); AS tBME; (evap.)
Protocol: as §1, §2, §3, §4, §5

[3] = seven-day solid stability studies (ambient; 40° C./75% RH; 80° C.), XRPD and HPLC; parameters: key to XRPD Analysis: Amorphous Compound 1 (free base); Crystalline Form 1 Compound 1 (free base); details: for degradation by HPLC: after 7 days storage at 40° C./75% RH and ambient conditions; for decrease in purity by HPLC: after 7 days storage at 80° C.
Protocol: In the experiment, one set of vials was exposed to ambient light, temperature and humidity conditions. Another was exposed openly to 40° C. and 75% RH conditions and a third was sealed and exposed to 80° C. conditions. After 7 days, XRPD and HPLC measurements were collected.
Example 12-Stability Studies of Amorphous Compound 1 (free base) and Crystalline Form 1 Compound 1 (free base): Seven-day stability studies were carried out comparing amorphous Compound 1 (free base) and crystalline Form 1 Compound 1 (free base) at 40° C./75% RH, under ambient conditions and at 80° C. After storage at 40° C./75% RH and 80° C., the amorphous material formed glassy solids which were pale yellow (40° C./75% RH) or orange (80° C.). It is likely that the material melted and re-solidified at 80° C. and deliquesced at 40° C./75% RH. […] (decrease in purity of ca. 11% area).
Example 15-Stabilities Studies-Crystalline Form 3 Compound 1 di(hydrogen sulfate) and Crystalline Form 4 Compound 1 mono(hydrogen sulfate): Seven-day stability studies were carried out on the prepared crystalline Form 3 Compound 1 di(hydrogen sulfate) and crystalline Form 4 Compound 1 mono(hydrogen sulfate) using the following conditions: (1) Ambient light, temperature and humidity conditions (open vial); (2) 40° C./75% RH (open vial); and (3) 80° C. (closed vial). After 7 days of storage under the specified conditions, XRPD and HPLC analyses were carried out on the residual solid materials, and the results are summarized in Table 51.
Example 18-Seven Day Stability Study on Crystalline Form 2 Compound 1 di(hydrogen sulfate) trihydrate: A 7-day stability study was conducted on crystalline Form 2 Compound 1 di(hydrogen sulfate) trihydrate using the following conditions: (1) ambient light, temperature, and humidity conditions (open vial); (2) 40° C., 75% RH (open vial); and (3) 80° C. (closed vial). After 7 days of storage under the specified, XRPD and HPLC analyses were carried out on the residual solid materials.

[4] = Dynamic Vapor Sorption (DVS)
Protocol: (§6) METHOD A: In Example 11, approximately 5-15 mg of sample was placed into a mesh vapor sorption balance pan and loaded into either a DVS Intrinsic or DVS Advantage dynamic vapor sorption balance by Surface Measurement Systems. The sample was subjected to a ramping profile from 40-90% relative humidity (RH) at 10% increments, maintaining the sample at each step until a stable weight had been achieved (dm/dt 0.004%, minimum step length 30 minutes, maximum step length 500 minutes) at 25° C. After completion of the sorption cycle, the sample was dried using the same procedure to 0% RH and then a second sorption cycle back to 40% RH was carried out. Two cycles were performed. The weight change during the sorption/desorption cycles were plotted, allowing the hygroscopic nature of the sample to be determined. XRPD analysis was then carried out on the residual solid.
as §6, with “B:” for “A:”, “Examples 2A, 3, 14, and 17,” for “Example 11,”, “10-20” for “5-15”, “determined.” for “determined. XRPD analysis was then carried out on the residual solid.”
as §6, with “Approximately 10-20” for “METHOD A: In Example 11, approximately 5-15”, “RH” for “relative humidity (RH)”, “min,” for “minutes,”, “min)” for “minutes)”, “determined.” for “determined. XRPD analysis was then carried out on the residual solid.”

[5] = Benzenesulfonic acid, 1 equiv., Acetonitrile, AS tBME
[6] = Benzenesulfonic acid, 1 equiv., Ethanol, AS Heptane
[7] = Benzenesulfonic acid, 1 equiv., Ethyl acetate, AS Heptane
[8] = Benzenesulfonic acid, 1 equiv., MEK, AS Heptane
[9] = Benzenesulfonic acid, 1 equiv., THF, AS Heptane
[10] = Benzenesulfonic acid, 2 equiv., Acetonitrile, AS tBME
[11] = Benzenesulfonic acid, 2 equiv., Ethanol, AS Heptane
[12] = Benzenesulfonic acid, 2 equiv., Ethyl acetate, AS Heptane
[13] = Benzenesulfonic acid, 2 equiv., IPA:H2O (75:25), AS tBME
[14] = Benzenesulfonic acid, 2 equiv., MEK, AS Heptane
[15] = Benzenesulfonic acid, 2 equiv., THF, AS Heptane
[16] = Hydrochloric acid, 1 equiv., Acetonitrile, AS tBME, (evap.)
[17] = Hydrochloric acid, 1 equiv., Ethanol*, AS Heptane, (evap.)
[18] = Hydrochloric acid, 1 equiv., Ethyl acetate, AS Heptane
[19] = Hydrochloric acid, 1 equiv., IPA:H2O (75:25% v/v), AS tBME, (evap.)
[20] = Hydrochloric acid, 1 equiv., MEK, AS Heptane
[21] = Hydrochloric acid, 1 equiv., THF, AS Heptane

O=S(=O)(O)c1ccccc1 [Benzenesulfonic acid, 1 equiv.]
XRPD Analysis 40° C. 75% RH [1, 5]: A
XRPD Analysis Damp [1, 5]: A
XRPD Analysis Dry [1, 5]: A
XRPD Analysis 40° C. 75% RH [1, 6]: A
XRPD Analysis Damp [1, 6]: A
XRPD Analysis Dry [1, 6]: A
XRPD Analysis 40° C. 75% RH [1, 7]: A
XRPD Analysis Damp [1, 7]: A
XRPD Analysis Dry [1, 7]: A
XRPD Analysis 40° C. 75% RH ([1]; Benzenesulfonic acid, 1 equiv., IPA:H2O (75:25% v/v), AS tBME): A
XRPD Analysis 40° C. 75% RH [1, 8]: A
XRPD Analysis Damp [1, 8]: A
XRPD Analysis Dry [1, 8]: A
XRPD Analysis 40° C. 75% RH [1, 9]: A
XRPD Analysis Damp [1, 9]: A
XRPD Analysis Dry [1, 9]: A
XRPD Analysis Damp/Dry [2]: A (evap.)

O=S(=O)(O)c1ccccc1 [Benzenesulfonic acid, 2 equiv.]
XRPD Analysis 40° C. 75% RH [1, 10]: A
XRPD Analysis Damp [1, 10]: A
XRPD Analysis Dry [1, 10]: A
XRPD Analysis 40° C. 75% RH [1, 11]: A
XRPD Analysis Damp [1, 11]: A
XRPD Analysis Dry [1, 11]: A
XRPD Analysis 40° C. 75% RH [1, 12]: A
XRPD Analysis Damp [1, 12]: A
XRPD Analysis Dry [1, 12]: A
XRPD Analysis 40° C. 75% RH [1, 13]: A
XRPD Analysis Damp [1, 13]: A
XRPD Analysis Dry [1, 13]: A
XRPD Analysis 40° C. 75% RH [1, 14]: A
XRPD Analysis Damp [1, 14]: A
XRPD Analysis Dry [1, 14]: A
XRPD Analysis 40° C. 75% RH [1, 15]: A
XRPD Analysis Damp [1, 15]: A
XRPD Analysis Dry [1, 15]: A

COc1cc(C(=O)O[C@@H]2CCCOc3cc(cc(OC)c3OC)C(=O)NCCCN3CCCN(CC2)CC3)cc(OC)c1OC [Form 1 Compound 1]
XRPD Analysis ([3]; 7 days, 40° C./75% RH): A
Post-Storage Observations ([3]; 7 days, 80° C.): Orange glassy
Solid Purity ([3]; 7 days, 80° C.): 84.1 % area
XRPD Analysis ([3]; 7 days, 80° C.): 1
Post-Storage Observations ([3]; 7 days, Ambient): White solid
Solid Purity ([3]; 7 days, Ambient): 99.9 % area
XRPD Analysis ([3]; 7 days, Ambient): A

COc1cc(C(=O)O[C@@H]2CCCOc3cc(cc(OC)c3OC)C(=O)NCCCN3CCCN(CC2)CC3)cc(OC)c1OC.O=S(=O)(O)O [Form 4 mono(hydrogen sulfate)]
HPLC ([3]; 7 days, 40° C./75% RH (open vial)): 99.87 % area
HPLC ([3]; 7 days, 40° C./75% RH, open vial): 99.87 % area
HPLC ([3]; 7 days, 80° C. (closed vial)): 99.64 % area
XRPD ([3]; 7 days, 80° C. (closed vial)): Amorphous*
HPLC ([3]; 7 days, 80° C., sealed): 99.64 % area
XRPD ([3]; 7 days, 80° C., sealed): Amorphous*
HPLC ([3]; 7 days, Ambient (open vial)): 99.89 % area
HPLC ([3]; 7 days, Ambient, open vial): 99.89 % area
HPLC ([3]; Input sample): 99.66 % area

Cl [Hydrochloric acid, 1 equiv.]
XRPD Analysis 40° C. 75% RH ([1]; Hydrochloric acid, 1 equiv., Acetonitrile, AS tBME): A
XRPD Analysis Damp [1, 16]: A
XRPD Analysis Dry [1, 16]: A
XRPD Analysis 40° C. 75% RH ([1]; Hydrochloric acid, 1 equiv., Ethanol*, AS Heptane): A
XRPD Analysis Damp [1, 17]: A
XRPD Analysis Dry [1, 17]: A
XRPD Analysis 40° C. 75% RH [1, 18]: A
XRPD Analysis Damp [1, 18]: A
XRPD Analysis Dry [1, 18]: A
XRPD Analysis 40° C. 75% RH ([1]; Hydrochloric acid, 1 equiv., IPA:H2O (75:25% v/v), AS tBME): A
XRPD Analysis Damp [1, 19]: A
XRPD Analysis Dry [1, 19]: A
XRPD Analysis 40° C. 75% RH [1, 20]: A
XRPD Analysis Damp [1, 20]: A
XRPD Analysis Dry [1, 20]: A
XRPD Analysis 40° C. 75% RH [1, 21]: A
XRPD Analysis Damp [1, 21]: A
XRPD Analysis Dry [1, 21]: A

COc1cc(C(=O)O[C@@H]2CCCOc3cc(cc(OC)c3OC)C(=O)NCCCN3CCCN(CC2)CC3)cc(OC)c1OC [amorphous Compound 1 (free base)]
hygroscopicity ([4]; 25° C.): hygroscopic
Post-Storage Observations ([3]; 7 days, 40° C./75% RH): Pale yellow
Solid Purity ([3]; 7 days, 40° C./75% RH): 98.8 % area
XRPD Analysis ([3]; 7 days, 40° C./75% RH): A
Post-Storage Observations ([3]; 7 days, 80° C.): Orange glassy
Solid Purity ([3]; 7 days, 80° C.): 87.5 % area
XRPD Analysis ([3]; 7 days, 80° C.): A
Post-Storage Observations ([3]; 7 days, Ambient): White solid
Solid Purity ([3]; 7 days, Ambient): 98.9 % area
XRPD Analysis ([3]; 7 days, Ambient): A
solid form by XRPD after storage ([3]; 7 days, all storage conditions): remained amorphous
degradation by HPLC [3]: no significant degradation
decrease in purity by HPLC [3]: ca. 11 % area
Input Material Purity ([3]; before storage): 98.8 % area

COc1cc(C(=O)O[C@@H]2CCCOc3cc(cc(OC)c3OC)C(=O)NCCCN3CCCN(CC2)CC3)cc(OC)c1OC [crystalline Form 1 Compound 1 (free base)]
hygroscopicity ([4]; 25° C.): slightly hygroscopic
post-DVS sample (XRPD / appearance) ([4]; DVS at 25° C.): predominantly amorphous material was recovered
moisture uptake (DVS) ([4]; at 80% RH, second sorption cycle, after likely formation of amorphous material): 3.3%
moisture uptake (DVS) ([4]; between 40-80% RH, first sorption cycle, 25° C.): 0.9%
moisture uptake (DVS) ([4]; between 80-90% RH, 25° C.): 3.8%
solid form by XRPD after storage ([3]; 7 days, 40° C./75% RH): amorphous material was recovered
solid form by XRPD after storage ([3]; 7 days, 80° C.): amorphous material was recovered
solid form by XRPD after storage ([3]; 7 days, ambient conditions): retained
degradation by HPLC [3]: no significant degradation
decrease in purity by HPLC [3]: ca. 15 % area
